# Assay results as given in paper PMC9945734 (BMC Medicine, 2023).
# System: PC-3-KQ and PC-3-KR cells
# Experiment: RNA-sequencing and differential gene expression
# Assay type: cell-based, human
# Details: RNA-Seq, PC-3-KQ cells
compound,measurement,value
CC(=O)Oc1ccccc1C(=O)Nc1ncc([N+](=O)[O-])s1 [Nitazoxanide],BDKRB2 Change (KQ-Control vs KQ-NTZ),DOWN
same,BDKRB2 logFC (KQ-Control vs KQ-NTZ),-1.3479
same,BRINP2 Change (KQ-Control vs KQ-NTZ),DOWN
same,BRINP2 logFC (KQ-Control vs KQ-NTZ),-0.6846
same,BTBD11 Change (KQ-Control vs KQ-NTZ),DOWN
same,BTBD11 logFC (KQ-Control vs KQ-NTZ),-1.0629
same,C2orf78 Change (KQ-Control vs KQ-NTZ),DOWN
same,C2orf78 logFC (KQ-Control vs KQ-NTZ),-0.8606
same,CACNG8 Change (KQ-Control vs KQ-NTZ),DOWN
same,CACNG8 logFC (KQ-Control vs KQ-NTZ),-1.0729
same,CAPSL Change (KQ-Control vs KQ-NTZ),DOWN
same,CAPSL logFC (KQ-Control vs KQ-NTZ),-0.8068
same,CD14 Change (KQ-Control vs KQ-NTZ),DOWN
same,CD14 logFC (KQ-Control vs KQ-NTZ),-2.3874
same,CEP19 Change (KQ-Control vs KQ-NTZ),DOWN
same,CEP19 logFC (KQ-Control vs KQ-NTZ),-0.5995
same,CNTNAP3B Change (KQ-Control vs KQ-NTZ),DOWN
same,CNTNAP3B logFC (KQ-Control vs KQ-NTZ),-1.4339
same,COL4A6 Change (KQ-Control vs KQ-NTZ),DOWN
same,COL4A6 logFC (KQ-Control vs KQ-NTZ),-0.6049
same,CSF3 Change (KQ-Control vs KQ-NTZ),DOWN
same,CSF3 logFC (KQ-Control vs KQ-NTZ),-0.9191
same,CXCL5 Change (KQ-Control vs KQ-NTZ),DOWN
same,CXCL5 logFC (KQ-Control vs KQ-NTZ),-1.0464
same,DEPTOR Change (KQ-Control vs KQ-NTZ),DOWN
same,DEPTOR logFC (KQ-Control vs KQ-NTZ),-0.7982
same,DMC1 Change (KQ-Control vs KQ-NTZ),DOWN
same,DMC1 logFC (KQ-Control vs KQ-NTZ),-0.9749
same,DRP2 Change (KQ-Control vs KQ-NTZ),DOWN
same,DRP2 logFC (KQ-Control vs KQ-NTZ),-1.0796
same,ECM2 Change (KQ-Control vs KQ-NTZ),DOWN
same,ECM2 logFC (KQ-Control vs KQ-NTZ),-0.755
same,EFCAB6 Change (KQ-Control vs KQ-NTZ),DOWN
same,EFCAB6 logFC (KQ-Control vs KQ-NTZ),-0.8325
same,FAM43A Change (KQ-Control vs KQ-NTZ),DOWN
same,FAM43A logFC (KQ-Control vs KQ-NTZ),-1.1246
same,FAM83D Change (KQ-Control vs KQ-NTZ),DOWN
same,FAM83D logFC (KQ-Control vs KQ-NTZ),-0.5981
same,FAM186B Change (KQ-Control vs KQ-NTZ),DOWN
same,FAM186B logFC (KQ-Control vs KQ-NTZ),-0.6856
same,FANCI Change (KQ-Control vs KQ-NTZ),DOWN
same,FANCI logFC (KQ-Control vs KQ-NTZ),-0.7453
same,FANCL Change (KQ-Control vs KQ-NTZ),DOWN
same,FANCL logFC (KQ-Control vs KQ-NTZ),-0.6097
same,FCGBP Change (KQ-Control vs KQ-NTZ),DOWN
same,FCGBP logFC (KQ-Control vs KQ-NTZ),-2.5743
same,FLI1 Change (KQ-Control vs KQ-NTZ),DOWN
same,FLI1 logFC (KQ-Control vs KQ-NTZ),-0.8219
same,FLRT1 Change (KQ-Control vs KQ-NTZ),DOWN
same,FLRT1 logFC (KQ-Control vs KQ-NTZ),-0.8174
same,FLT1 Change (KQ-Control vs KQ-NTZ),DOWN
same,FLT1 logFC (KQ-Control vs KQ-NTZ),-0.8
same,FOXI1 Change (KQ-Control vs KQ-NTZ),DOWN
same,FOXI1 logFC (KQ-Control vs KQ-NTZ),-1.9605
same,FOXP3 Change (KQ-Control vs KQ-NTZ),DOWN
same,FOXP3 logFC (KQ-Control vs KQ-NTZ),-1.1132
same,FSD2 Change (KQ-Control vs KQ-NTZ),DOWN
same,FSD2 logFC (KQ-Control vs KQ-NTZ),-1.2199
same,FZD4 Change (KQ-Control vs KQ-NTZ),DOWN
same,FZD4 logFC (KQ-Control vs KQ-NTZ),-1.1759
same,GBX2 Change (KQ-Control vs KQ-NTZ),DOWN
same,GBX2 logFC (KQ-Control vs KQ-NTZ),-0.9793
same,GPR19 Change (KQ-Control vs KQ-NTZ),DOWN
same,GPR19 logFC (KQ-Control vs KQ-NTZ),-0.6847
same,GRAMD2A Change (KQ-Control vs KQ-NTZ),DOWN
same,GRAMD2A logFC (KQ-Control vs KQ-NTZ),-1.0971
same,H3C1 Change (KQ-Control vs KQ-NTZ),DOWN
same,H3C1 logFC (KQ-Control vs KQ-NTZ),-0.9324
same,HAS3 Change (KQ-Control vs KQ-NTZ),DOWN
same,HAS3 logFC (KQ-Control vs KQ-NTZ),-1.3005
same,HPSE2 Change (KQ-Control vs KQ-NTZ),DOWN
same,HPSE2 logFC (KQ-Control vs KQ-NTZ),-0.9315
same,HSD3B1 Change (KQ-Control vs KQ-NTZ),DOWN
same,HSD3B1 logFC (KQ-Control vs KQ-NTZ),-0.7148
same,IGF2BP1 Change (KQ-Control vs KQ-NTZ),DOWN
same,IGF2BP1 logFC (KQ-Control vs KQ-NTZ),-0.8373
same,IGFBP4 Change (KQ-Control vs KQ-NTZ),DOWN
same,IGFBP4 logFC (KQ-Control vs KQ-NTZ),-1.0441
same,IGSF23 Change (KQ-Control vs KQ-NTZ),DOWN
same,IGSF23 logFC (KQ-Control vs KQ-NTZ),-0.7201
